In ChEMBL document CHEMBL1821577, “Discovery of GSK1997132B a novel centrally penetrant benzimidazole PPARγ partial agonist” (Bioorg Med Chem Lett, 2011):
Converted amounts (≈) assume the structure as drawn.

What was measured:
[1] = molecular target: T1, Peroxisome proliferator-activated receptor gamma (Homo sapiens, UniProt P37231); test: Partial agonist activity at human PPARgamma by luciferase reporter gene assay; type: functional
T1 sequence (P37231 whole entry): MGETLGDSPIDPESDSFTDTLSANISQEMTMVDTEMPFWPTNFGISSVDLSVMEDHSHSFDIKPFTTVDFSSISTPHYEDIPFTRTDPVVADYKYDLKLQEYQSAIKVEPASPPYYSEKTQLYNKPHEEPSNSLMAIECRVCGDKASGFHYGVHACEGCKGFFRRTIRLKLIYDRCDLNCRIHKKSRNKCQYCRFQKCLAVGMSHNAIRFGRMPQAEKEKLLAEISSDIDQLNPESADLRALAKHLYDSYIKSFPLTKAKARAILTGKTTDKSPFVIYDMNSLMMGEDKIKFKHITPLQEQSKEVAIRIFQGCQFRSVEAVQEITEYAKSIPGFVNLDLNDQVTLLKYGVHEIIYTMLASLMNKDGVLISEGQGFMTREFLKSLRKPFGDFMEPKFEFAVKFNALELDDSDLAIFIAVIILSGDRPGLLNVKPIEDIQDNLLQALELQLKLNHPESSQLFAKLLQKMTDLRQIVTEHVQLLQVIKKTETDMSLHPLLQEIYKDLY

[2] = molecular target: T2, Peroxisome proliferator-activated receptor gamma (Homo sapiens) (UniProt P37231); test: Activity at human PPARgamma by luciferase reporter gene assay; design: concentration or dose not given beside the values
T2 sequence (whole entry): T1 sequence (P37231 whole entry)

Liver microsomes [3] = test: Intrinsic clearance in rat liver microsome; type: ADME
Liver microsomes [4] = test: Intrinsic clearance in human liver microsome; type: ADME
Liver [5] = test: Intrinsic clearance in rat liver S9 fraction; type: ADME, subcellular
Rattus norvegicus = test: Blood clearance at steady state in rat at 2 mg/kg/h, iv; type: ADME, organism-based; design: route intravenous; settings: in vivo
[6] = Ratio of drug uptake in brain to blood at steady state in rat at 2 mg/kg/h, iv; type: ADME, organism-based; design: route intravenous
Brain [7] = test: Drug uptake in rat brain at steady state at 2 mg/kg/h, iv; type: ADME, organism-based; design: route intravenous; settings: in vivo, read-out: Drug uptake
[8] = Fraction unbound in rat blood; type: ADME, tissue-based
[9] = Fraction unbound in rat brain; type: ADME, tissue-based
Brain [10] = test: Free drug level rat brain at 1 mg/kg, iv; type: ADME, organism-based; design: dose 1 mg/kg, route intravenous; settings: in vivo
Cytochrome P450 1A2 = molecular target: T3, Cytochrome P450 1A2 (Homo sapiens, UniProt P05177); test: Inhibition of CYP1A2; type: ADME
T3 sequence (P05177 whole entry): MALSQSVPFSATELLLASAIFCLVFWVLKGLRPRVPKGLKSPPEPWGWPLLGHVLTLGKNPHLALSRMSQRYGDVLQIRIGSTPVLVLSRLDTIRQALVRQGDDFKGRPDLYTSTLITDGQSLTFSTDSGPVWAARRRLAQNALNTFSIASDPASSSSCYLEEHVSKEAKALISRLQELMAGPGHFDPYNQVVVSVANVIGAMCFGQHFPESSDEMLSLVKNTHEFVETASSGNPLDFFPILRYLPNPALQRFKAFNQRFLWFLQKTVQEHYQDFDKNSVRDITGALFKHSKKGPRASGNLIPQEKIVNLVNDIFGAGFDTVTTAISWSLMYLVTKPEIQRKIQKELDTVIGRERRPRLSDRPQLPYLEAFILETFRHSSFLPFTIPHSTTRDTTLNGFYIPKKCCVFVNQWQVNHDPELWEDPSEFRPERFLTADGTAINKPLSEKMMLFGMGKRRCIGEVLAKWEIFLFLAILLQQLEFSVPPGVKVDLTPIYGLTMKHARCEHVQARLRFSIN

Cytochrome P450 2C19 = Cytochrome P450 2C19 (Homo sapiens, UniProt P33261); test: Inhibition of CYP2C19; type: ADME
Cytochrome P450 2C9 = Cytochrome P450 2C9 (Homo sapiens, UniProt P11712); test: Inhibition of CYP2C9; type: ADME
Cytochrome P450 2D6 = Cytochrome P450 2D6 (Homo sapiens, UniProt P10635); test: Inhibition of CYP2D6; type: ADME
Cytochrome P450 3A4 [11] = molecular target: T4, Cytochrome P450 3A4 (Homo sapiens, UniProt P08684); test: Inhibition of CYP3A4 using DEF substrate; type: ADME
Cytochrome P450 3A4 [12] = molecular target: T4, Cytochrome P450 3A4; test: Inhibition of CYP3A4 using 7-benzyloxyquinoline as substrate; type: ADME
[13] = Solubility of the compound in water after 0.5 hrs; type: physicochemical
[14] = Solubility of the compound in simulated gastric fluid after 0.5 hrs; type: physicochemical
[15] = Solubility of the compound in fasted state simulated intestinal fluid after 0.5 hrs; type: physicochemical
[16] = Solubility of the compound in fed state simulated intestinal fluid after 0.5 hrs; type: physicochemical
P-gp (human MDR1) [17] = test: Permeability of the compound from apical to basolateral direction in dog MDCK2 expressing human MDR1 cells by PGP assay; type: ADME, cell-based, Canis lupus familiaris, MDCK-II; settings: MDCK-MDR1, read-out: permeability
P-gp (human MDR1) [18] = test: Efflux ratio of permeability in dog MDCK2 expressing human MDR1 cells by PGP assay; type: ADME, cell-based, Canis lupus familiaris, MDCK-II; settings: MDCK-MDR1
[19] = molecular target: T5, Peroxisome proliferator-activated receptor alpha (Homo sapiens, UniProt Q07869); test: Partial agonist activity at PPARalpha by luciferase reporter gene assay; type: functional
T5 sequence (Q07869 whole entry): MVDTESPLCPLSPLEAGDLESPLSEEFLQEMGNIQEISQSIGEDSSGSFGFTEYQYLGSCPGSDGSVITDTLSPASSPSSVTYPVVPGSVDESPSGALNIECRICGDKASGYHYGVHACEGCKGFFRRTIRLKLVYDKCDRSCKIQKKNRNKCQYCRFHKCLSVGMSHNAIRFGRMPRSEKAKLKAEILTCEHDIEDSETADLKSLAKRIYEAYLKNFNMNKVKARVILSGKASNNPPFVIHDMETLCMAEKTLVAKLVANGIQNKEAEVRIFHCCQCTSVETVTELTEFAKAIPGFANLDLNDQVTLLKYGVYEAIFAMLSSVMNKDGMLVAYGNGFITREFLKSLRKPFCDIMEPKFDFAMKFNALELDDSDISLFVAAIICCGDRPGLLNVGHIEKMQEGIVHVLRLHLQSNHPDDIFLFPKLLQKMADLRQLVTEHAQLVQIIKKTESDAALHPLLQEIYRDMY

[20] = molecular target: T6, Peroxisome proliferator-activated receptor delta (Homo sapiens, UniProt Q03181); test: Partial agonist activity at PPARdelta by luciferase reporter gene assay; type: functional
T6 sequence (Q03181 whole entry): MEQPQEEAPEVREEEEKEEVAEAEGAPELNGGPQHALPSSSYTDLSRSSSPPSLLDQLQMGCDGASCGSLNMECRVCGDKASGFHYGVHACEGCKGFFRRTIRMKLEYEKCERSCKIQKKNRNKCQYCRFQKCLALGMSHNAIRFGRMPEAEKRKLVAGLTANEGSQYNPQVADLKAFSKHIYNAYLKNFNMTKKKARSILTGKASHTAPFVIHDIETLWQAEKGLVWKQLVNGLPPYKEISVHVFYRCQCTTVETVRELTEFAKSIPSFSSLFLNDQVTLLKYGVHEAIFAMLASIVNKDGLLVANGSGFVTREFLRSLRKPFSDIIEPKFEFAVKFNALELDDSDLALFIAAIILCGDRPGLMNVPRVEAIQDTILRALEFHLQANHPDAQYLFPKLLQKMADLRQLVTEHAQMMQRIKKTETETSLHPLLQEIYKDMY

Liver [21] = test: Intrinsic clearance in mouse liver microsome; type: ADME; settings: microsomes
Mus musculus = test: Blood clearance in mouse at 1 mg/kg, iv; type: ADME, organism-based; design: dose 1 mg/kg, route intravenous; settings: in vivo

T4 sequence (P08684 whole entry): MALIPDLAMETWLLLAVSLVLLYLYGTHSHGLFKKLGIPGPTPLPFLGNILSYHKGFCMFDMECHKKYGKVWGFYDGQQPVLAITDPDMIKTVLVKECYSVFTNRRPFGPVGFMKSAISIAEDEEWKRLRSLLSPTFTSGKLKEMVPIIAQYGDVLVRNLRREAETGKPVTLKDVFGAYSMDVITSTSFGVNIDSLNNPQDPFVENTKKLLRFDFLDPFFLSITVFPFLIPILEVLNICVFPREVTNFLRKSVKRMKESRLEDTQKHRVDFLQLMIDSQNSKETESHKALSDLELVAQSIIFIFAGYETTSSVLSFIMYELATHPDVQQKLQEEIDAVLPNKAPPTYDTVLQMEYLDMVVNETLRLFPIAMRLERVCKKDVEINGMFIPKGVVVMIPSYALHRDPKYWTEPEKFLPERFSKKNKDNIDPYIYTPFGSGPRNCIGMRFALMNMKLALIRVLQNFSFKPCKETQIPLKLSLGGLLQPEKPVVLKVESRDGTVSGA
Cytochrome P450 2C9, sequence (P11712 whole entry): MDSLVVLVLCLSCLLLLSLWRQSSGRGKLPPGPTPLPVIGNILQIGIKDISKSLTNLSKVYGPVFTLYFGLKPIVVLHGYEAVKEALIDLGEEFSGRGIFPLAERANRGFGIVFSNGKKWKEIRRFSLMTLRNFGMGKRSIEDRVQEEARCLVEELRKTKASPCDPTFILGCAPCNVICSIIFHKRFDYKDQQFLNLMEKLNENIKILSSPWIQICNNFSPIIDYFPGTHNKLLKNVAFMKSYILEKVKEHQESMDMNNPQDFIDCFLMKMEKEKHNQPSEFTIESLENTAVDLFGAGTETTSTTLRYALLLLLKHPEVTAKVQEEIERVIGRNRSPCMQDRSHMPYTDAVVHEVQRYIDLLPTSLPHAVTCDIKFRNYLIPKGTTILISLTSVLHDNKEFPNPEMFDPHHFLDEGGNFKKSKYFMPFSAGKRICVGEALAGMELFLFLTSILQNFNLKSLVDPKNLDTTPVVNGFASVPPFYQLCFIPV
Cytochrome P450 2D6, sequence (P10635 whole entry): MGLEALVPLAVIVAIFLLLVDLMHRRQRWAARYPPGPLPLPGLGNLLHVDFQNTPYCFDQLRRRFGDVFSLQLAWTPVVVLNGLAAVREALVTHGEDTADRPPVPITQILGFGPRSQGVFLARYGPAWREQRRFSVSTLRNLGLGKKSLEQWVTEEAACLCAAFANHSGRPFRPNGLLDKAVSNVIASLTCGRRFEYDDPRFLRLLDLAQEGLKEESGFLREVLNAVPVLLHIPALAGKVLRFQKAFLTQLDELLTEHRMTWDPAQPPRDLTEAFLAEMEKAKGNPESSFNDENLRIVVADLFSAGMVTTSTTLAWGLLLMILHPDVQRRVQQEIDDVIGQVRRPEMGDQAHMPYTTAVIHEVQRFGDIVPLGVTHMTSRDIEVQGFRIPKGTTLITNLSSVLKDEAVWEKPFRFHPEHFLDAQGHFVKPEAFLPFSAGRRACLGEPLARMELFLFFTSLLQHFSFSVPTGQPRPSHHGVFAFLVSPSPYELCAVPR
Cytochrome P450 2C19, sequence (P33261 whole entry): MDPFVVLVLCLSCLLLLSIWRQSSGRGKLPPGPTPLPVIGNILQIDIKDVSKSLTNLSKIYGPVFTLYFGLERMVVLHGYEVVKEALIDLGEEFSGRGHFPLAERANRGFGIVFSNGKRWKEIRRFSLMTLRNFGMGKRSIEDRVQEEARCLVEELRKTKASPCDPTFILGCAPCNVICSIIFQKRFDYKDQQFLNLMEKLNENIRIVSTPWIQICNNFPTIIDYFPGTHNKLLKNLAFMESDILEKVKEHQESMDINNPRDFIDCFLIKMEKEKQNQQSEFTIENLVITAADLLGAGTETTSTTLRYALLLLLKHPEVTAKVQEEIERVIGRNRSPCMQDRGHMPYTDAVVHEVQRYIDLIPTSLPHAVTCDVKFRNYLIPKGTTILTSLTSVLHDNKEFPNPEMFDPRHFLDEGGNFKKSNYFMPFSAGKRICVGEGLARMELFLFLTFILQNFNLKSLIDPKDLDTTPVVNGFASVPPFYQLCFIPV

For CCc1nc2cc(C(=O)N[C@H](CC)c3ccccc3)ccc2n1Cc1ccc(Cl)c(Cl)c1, the EC50 [1] was 0.2 µM and the Activity [2] was 65%.
With CC[C@@H](NC(=O)c1ccc2c(c1)ncn2Cc1ccc(Cl)c(Cl)c1)c1ccccc1 the EC50 [1] was 0.00251 µM, the Activity [2] was 71% and the CL (Liver microsomes [3]) was 3.3 mL/min/g. It also gave a CL (Liver microsomes [4]) of 0.6 mL/min/g, a CL (Liver [5]) of 10 mL/min/g and a clearance (Rattus norvegicus) of 84 mL/min/kg. It also gave a Kp [6] of 0.71 and a concentration (Brain [7]) of 655 nM.
Molecule CC[C@@H](NC(=O)c1ccc2c(c1)ncn2Cc1ncc(F)cc1F)c1ccccc1 has an EC50 [1] of 0.01 µM, an Activity [2] of 68% and a CL (Liver microsomes [3]) of 1.2 mL/min/g. It also gave a CL (Liver microsomes [4]) of 0.5 mL/min/g, a CL (Liver [5]) of 1.6 mL/min/g and a clearance (Rattus norvegicus) of 30 mL/min/kg. The Kp [6] was 0.22, the concentration (Brain [7]) was 446 nM and the fraction unbound [8] was 0.175. It also gave a fraction unbound [9] of 0.115, a Drug uptake (Brain [10]) of 51 nM and an IC50 (Cytochrome P450 1A2) of 14 µM. For the same molecule, the IC50 (Cytochrome P450 2C19) was 87 µM, the IC50 (Cytochrome P450 2C9) was 42 µM and the IC50 (Cytochrome P450 2D6) was 65 µM. For the same molecule, the IC50 (Cytochrome P450 3A4 [11]) was 45 µM, the IC50 (Cytochrome P450 3A4 [12]) was > 100 µM and the solubility at 0.5 h [13] was 330 µg/mL (≈ 812 µM). For the same molecule, the solubility at 0.5 h [14] was > 1000 µg/mL, the solubility at 0.5 h [15] was 80 µg/mL (≈ 197 µM) and the solubility at 0.5 h [16] was 220 µg/mL (≈ 541 µM). For the same molecule, the Papp A→B (P-gp (human MDR1) [17]) was 122 ×10⁻⁶ cm/s and the efflux ratio (P-gp (human MDR1) [18]) was 1.6.
Molecule Cc1nc2cc(C(=O)NCc3ccccc3)ccc2n1Cc1ccc(Cl)c(Cl)c1 has an EC50 [1] of 0.398 µM and an Activity [2] of 83%.
Work on CC[C@@H](NC(=O)c1ccc2c(c1)nc(C(C)C)n2Cc1ccc(Cl)c(Cl)c1)c1ccccc1 yielded an EC50 [1] of 0.398 µM and an Activity [2] of 42%.
CC[C@H](NC(=O)c1ccc2c(c1)nc(C)n2Cc1ccc(Cl)c(Cl)c1)c1ccccc1 gave an EC50 [1] of 0.251 µM and an Activity [2] of 21%.
For CC[C@@H](NC(=O)c1ccc2c(c1)nc(C)n2Cc1ccc(S(C)(=O)=O)cc1)c1ccccc1, the EC50 [1] was 5.01 µM and the Activity [2] was 48%.
CC[C@@H](NC(=O)c1ccc2c(c1)nc(C(F)(F)F)n2Cc1ccc(Cl)c(Cl)c1)c1ccccc1 showed an EC50 [1] of 0.251 µM and an Activity [2] of 60%.
With CC[C@@H](NC(=O)c1ccc2c(c1)ncn2Cc1ccc(F)c(Cl)c1)c1ccccc1 the EC50 [1] was 0.00631 µM and the Activity [2] was 85%.
CC[C@@H](NC(=O)c1ccc2c(c1)nc(C)n2Cc1ccc(F)cc1)c1ccccc1 gave an EC50 [1] of 0.158 µM and an Activity [2] of 74%.
For CCC(=O)c1nc2cc(C(=O)N[C@H](CC)c3ccccc3)ccc2n1Cc1ccc(Cl)c(Cl)c1, the EC50 [1] was 0.0794 µM and the Activity [2] was 75%.
With CCC(NC(=O)c1ccc2c(c1)nc(C)n2Cc1ccc(Cl)c(Cl)c1)c1ccccc1 (stereo not given) the EC50 [1] was 0.0501 µM, the Activity [2] was 64% and the EC50 [19] was > 10 µM. The EC50 [20] was > 10 µM, the CL (Liver [21]) was 1.75 mL/min/g and the CL (Liver microsomes [3]) was 2.5 mL/min/g. For the same molecule, the CL (Liver microsomes [4]) was 0.5 mL/min/g and the clearance (Mus musculus) was 736 mL/min/kg.
In the case of CC[C@@H](NC(=O)c1ccc2c(c1)ncn2Cc1ccccc1F)c1ccccc1, the EC50 [1] is reported as 0.00794 µM and the Activity [2] is reported as 80%.
Molecule CC[C@@H](NC(=O)c1ccc2c(c1)nc(C)n2Cc1ccc(C(N)=O)cc1)c1ccccc1 has an EC50 [1] of 10 µM and an Activity [2] of 17%.
For CC[C@@H](NC(=O)c1ccc2c(c1)ncn2Cc1ccccc1S(C)(=O)=O)c1ccccc1, the EC50 [1] was 0.398 µM and the Activity [2] was 73%.
In the case of CC[C@@H](NC(=O)c1ccc2c(c1)nc(C1CC1)n2Cc1ccc(Cl)c(Cl)c1)c1ccccc1, the EC50 [1] is reported as 0.126 µM and the Activity [2] is reported as 58%.
